According to patent US8377636B2, “Biological markers predictive of anti-cancer response to kinase inhibitors” (OSI Pharmaceuticals, LLC, priority 2007, dated 2013):

Assays:
H292 NSCLC xenograft = assay: Xenograft tumor growth inhibition; assay type: in vivo, CD-1 nu/nu mice; conditions: H292 xenograft in mice; 100 mg/kg once a day for 14 days, oral gavage
Description: (§1) FIG. 9: Sensitivity of NSCLC cell lines to erlotinib In Vivo. Female CD-1 nu/nu mice were implanted with H292 or Calu6 cells and tumor allowed to grow to 200 mm^3. Animals were then either left untreated or treated with 100 mg/kg erlotinib once a day for 14 days. Tumor volume was measured twice weekly.
(§2) Female CD-1 nu/nu mice (Charles River Laboratories, Wilmington, Mass.) were implanted with harvested NSCLC tumor cells in a single subcutaneous site on the flank of the mice in the axillary region. Tumors were allowed to grow to 200±50 mm^3, at which time the animals were sorted into treatment groups of 8 animals per group based on weight (±1 g body weight) and tattooed on the tail for permanent identification. Tumor volumes and body weights were determined twice weekly. The tumor volume was determined by measuring in two directions with vernier calipers and calculated using the formula: Tumor volume=(length×width^2)/2. The data were plotted as the % change in mean values of tumor volume and body weight for each group. The tumor growth inhibition (% TGI) was determined as % TGI=[…]: where Wt is the median tumor volume of the treated group at time x and Wc is the median tumor volume of the control group at time x. TARCEVA® was dosed in a 6% Captisol (CyDex, Inc) in WFI (Water for Injection) solution and all control animals were dosed with an equal volume of the vehicle. […]

Calu6 NSCLC xenograft = assay: Xenograft tumor growth inhibition; assay type: in vivo, CD-1 nu/nu mice; conditions: Calu6 xenograft in mice; 100 mg/kg once a day for 14 days, oral gavage
Description: as §1, §2

H460 NSCLC cell line = assay: Sensitivity of tumor cells to EGFR kinase inhibitor; assay type: cell-based, human; conditions: phenotype Mesenchymal-like
Description: (§3) The human NSCLC lines H1299, H266, H522, H650, H1437, H1155, Calu1, Hop92, H23, H292, H358, H322, H441, A549, Calu6, H460, H1703 and SW1573 were cultured in the appropriate ATCC recommended supplemented media. Cell extracts were prepared by detergent lysis (50 mM Tris-HCl, pH8, 150 mM NaCl, 1% NP-40, 0.5% NaDeoxycholate, 0.1% SDS) containing protease and phosphatase inhibitors. The soluble protein concentration was determined by micro-BSA assay (Pierce, Rockford Ill.). In experiments monitoring serum stimulation, cells were grown in media with 0.5% FBS for 24 hours followed by addition of FBS to a final concentration of 10% for 10 minutes prior to lysis. In experiments where inhibitor treatment was required, inhibitor was added at the indicated concentration and the cells the stimulated with the indicated ligand. For cell proliferation assays cells were plated, inhibitor added and proliferation measured after 72 hours using the CELLTITERGLO™ cell viability assay (Promega, Madison Wis.).

H650 NSCLC cell line = assay: as above; assay type: cell-based, human; conditions: phenotype Mesenchymal-like
Description: as §3

SW1573 NSCLC cell line = assay: as above; assay type: cell-based, human; conditions: phenotype Mesenchymal-like
Description: as §3

H358 NSCLC cell line = assay: as above; assay type: cell-based, human; conditions: phenotype Epithelial
Description: as §3

H322 NSCLC cell line = assay: as above; assay type: cell-based, human; conditions: phenotype Epithelial
Description: as §3

H1437 NSCLC cell line = assay: as above; assay type: cell-based, human; conditions: phenotype Epithelial
Description: as §3

HOP92 NSCLC cell line = assay: as above; assay type: cell-based, human; conditions: phenotype Mesenchymal-like
Description: as §3

H23 NSCLC cell line = assay: as above; assay type: cell-based, human; conditions: phenotype Mesenchymal-like
Description: as §3

H292 NSCLC cell line = assay: as above; assay type: cell-based, human; conditions: phenotype Epithelial
Description: as §3

A549 NSCLC cell line = assay: as above; assay type: cell-based, human; conditions: phenotype Mixed
Description: as §3

CALU1 NSCLC cell line = assay: as above; assay type: cell-based, human; conditions: phenotype Mesenchymal-like
Description: as §3

H1703 NSCLC cell line = assay: as above; assay type: cell-based, human; conditions: phenotype Mesenchymal-like
Description: as §3

H226 NSCLC cell line = assay: as above; assay type: cell-based, human; conditions: phenotype Mesenchymal-like
Description: as §3

H522 NSCLC cell line = assay: as above; assay type: cell-based, human; conditions: phenotype Mesenchymal-like
Description: as §3

CALU6 NSCLC cell line = assay: as above; assay type: cell-based, human; conditions: phenotype Mesenchymal-like
Description: as §3

H441 NSCLC cell line = assay: as above; assay type: cell-based, human; conditions: phenotype Epithelial
Description: as §3

H1155 NSCLC cell line = assay: as above; assay type: cell-based, human; conditions: phenotype Mesenchymal-like
Description: as §3

H1299 NSCLC cell line = assay: as above; assay type: cell-based, human; conditions: phenotype Mesenchymal-like
Description: as §3

[1] = system: ERK MAP kinase and AKT pathways in H226 cells; assay: Intracellular signaling, immunoblot of pERK and pAKT; assay type: cell-based, human
Description: (§4) FIG. 7: Inhibition of FGFR Signaling in H1703 and H226 NSCLC Cells. H1703 and H226 cells were treated with either […] PD173074 for 2 hours and then left untreated (CON) or treated with 10 ng/ml FGF for 15 min (FGF). Cell lysates were prepared and immunoblots using antibodies against pERK, total ERK, pAKT (ser473), total AKT and β-actin were performed.
as §3, with “Wis.). […]” for “Wis.).”

H1703 cells [2] = assay: Cell proliferation, CellTitreGlo assay; assay type: cell-based, human
Description: (§5) FIG. 3: Inhibition of PDGFR activity in NSCLC. A. H1703 cells were treated with increasing concentrations of PDGFR inhibitor 1 (OSI-930) (▪), PDGFR inhibitor 2 (▴) or an EGFR inhibitor (erlotinib) (▾). After 72 hours incubation proliferation of the cells was measured by CellTitreGlo assay and plotted as a % proliferation relative to untreated cells. B. H1703 cells were treated with the PDGFR inhibitor OSI-930 for 2 hours and then left untreated or treated with PDGF (10 ng/ml) for 15 mins. Protein extracts were prepared and immunoblots probed with the indicated antibodies C. H1703 and Calu1 cells were treated with either 1 or 5 μM of PDGFR inhibitor OSI-930 and the effect on closure of the wound analysed after 24 hrs.
(§6) FIG. 6: Inhibition of FGFR activity in NSCLC. A. H1703 (▪), Calu1 (▴) and H226 (▾) cells were treated with increasing concentrations of FGFR inhibitor (PD173074). After 72 hours incubation proliferation of the cells was measured by CellTitreGlo assay and plotted as a % proliferation relative to untreated cells.
as §3

Calu1 cells [3] = assay: Cell motility, closure of the wound; assay type: cell-based, human; conditions: 1 or 5 μM, 24 hrs
Description: as §5

H1703 cells [4] = assay: Cell motility, closure of the wound; assay type: cell-based, human; conditions: 1 or 5 μM, 24 hrs
Description: as §5

[5] = system: ERK MAP kinase and AKT pathways in H1703 cells; assay: Intracellular signaling, immunoblot of pERK and pAKT; assay type: cell-based, human; parameters: AKT pathway inhibition: dose or concentration left out as unconfirmed
Description: as §5, §4
as §3, with “Wis.). […]” for “Wis.).”

H358 cells = assay: Cell proliferation, CellTitreGlo assay; assay type: cell-based, human
Description: as §3

Calu1 cells [6] = assay: Cell proliferation, CellTitreGlo assay; assay type: cell-based, human
Description: as §6, §3

H226 cells = assay: Cell proliferation, CellTitreGlo assay; assay type: cell-based, human
Description: as §6, §3

[7] = system: ERK MAP kinase and AKT pathways in Calu1 cells; assay: Intracellular signaling, immunoblot of pERK and pAKT; assay type: cell-based, human; conditions: presence or absence of exogenously added ligand
Description: as §3
Protein immunodetection was performed by electrophoretic transfer of SDS-PAGE separated proteins to nitrocellulose, incubation with antibody and chemiluminescent detection (PicoWest; Pierce, Rockford, Ill.). […]

[8] = 0.5% FCS and PDGF (mixed AA, AB and BB forms) added
[9] = for 2 hours, basal and FGF (10 ng/ml, 15 min) stimulated
[10] = increasing concentrations, 72 hours

## C#Cc1cccc(Nc2ncnc3cc(OCCOC)c(OCCOC)cc23)c1 [Erlotinib, [6,7-bis(2-methoxyethoxy)-4-quinazolin-4-yl]-(3-ethynylphenyl) amine]
H292 NSCLC xenograft
  Xenograft growth, tumor volume: sensitive to EGFR inhibition and shows a reduction in tumor volume during the dosing period
Calu6 NSCLC xenograft
  Xenograft growth, tumor volume: insensitive to EGFR inhibition
H460 NSCLC cell line
  Erlotinib Senistivity: Insensitive
H650 NSCLC cell line
  Erlotinib Senistivity: Insensitive
SW1573 NSCLC cell line
  Erlotinib Senistivity: Insensitive
H358 NSCLC cell line
  Erlotinib Senistivity: Sensitive
H322 NSCLC cell line
  Erlotinib Senistivity: Sensitive
H1437 NSCLC cell line
  Erlotinib Senistivity: Insensitive
HOP92 NSCLC cell line
  Erlotinib Senistivity: Insensitive
HOP92 NSCLC cell line; listed as erlotinib
  Erlotinib Senistivity: insensitive
H23 NSCLC cell line
  Erlotinib Senistivity: Insensitive
H23 NSCLC cell line; listed as erlotinib
  Erlotinib Senistivity: insensitive
H292 NSCLC cell line
  Erlotinib Senistivity: Sensitive
A549 NSCLC cell line
  Erlotinib Senistivity: Intermediate
CALU1 NSCLC cell line
  Erlotinib Senistivity: Insensitive
H1703 NSCLC cell line
  Erlotinib Senistivity: Insensitive
H1703 NSCLC cell line; listed as erlotinib
  Erlotinib Senistivity: insensitive
H226 NSCLC cell line
  Erlotinib Senistivity: Insensitive
H522 NSCLC cell line
  Erlotinib Senistivity: Insensitive
CALU6 NSCLC cell line
  Erlotinib Senistivity: Insensitive
H441 NSCLC cell line
  Erlotinib Senistivity: Sensitive
H1155 NSCLC cell line
  Erlotinib Senistivity: Insensitive
H1299 NSCLC cell line
  Erlotinib Senistivity: Insensitive

## O=C(Nc1ccc(OC(F)(F)F)cc1)c1sccc1NCc1ccnc2ccccc12 [OSI-930]
[1]; basal and PDGF ligand stimulated
  Inhibition of ERK and AKT pathways: only showed ligand induced inhibition of ERK and AKT pathways
H1703 cells [2]; [8]
  Inhibition of cell growth (proliferation): inhibited more potently
H1703 cells [2]; 10% FCS, 72 hours
  Inhibition of cell growth (proliferation): Inhibition of cell growth
Calu1 cells [3]
  Cell motility (closure of the wound): inhibition of cell motility
H1703 cells [4]
  Cell motility (closure of the wound): inhibition of cell motility
[5]; inhibitor 2 hours, basal (10% FCS) and ligand stimulated (PDGF 10 ng/ml, 15 mins)
  Phosphorylation of ERK MAP kinase and AKT (serine 473): reduced phosphorylation of ERK MAP kinase and AKT (on serine 473)
H358 cells; [8]
  Inhibition of cell growth (proliferation): failed to show any enhanced growth inhibition
H358 cells; 10% FCS, 72 hours
  Inhibition of cell growth (proliferation): only observed in H1703 cells
Calu1 cells [6]; [8]
  Inhibition of cell growth (proliferation): failed to show any enhanced growth inhibition
Calu1 cells [6]; 10% FCS, 72 hours
  Inhibition of cell growth (proliferation): not growth inhibited
H226 cells; [8]
  Inhibition of cell growth (proliferation): failed to show any enhanced growth inhibition
H226 cells; 10% FCS, 72 hours
  Inhibition of cell growth (proliferation): not growth inhibited

## CCN(CC)CCCCNc1ncc2cc(-c3cc(OC)cc(OC)c3)c(NC(=O)NC(C)(C)C)nc2n1 [PD173074]
[1]; [9]
  Activation of the ERK MAP kinase pathway: inhibited
H1703 cells [2]; [10]
  Growth inhibition (proliferation): growth inhibited
[7]
  Signaling (ERK, AKT): unaffected
[5]; [9]
  Activation of the ERK MAP kinase pathway: inhibited
[5]; for 2 hours, basal and FGF stimulated
  AKT pathway inhibition: only inhibited after ligand stimulation
Calu1 cells [6]; [10]
  Growth inhibition (proliferation): little effect
H226 cells; [10]
  Growth inhibition (proliferation): growth inhibited
